Laboratory results from patent US20260130933A1, “PHARMACEUTICAL COMPOSITION FOR PREVENTION OR TREATMENT OF NEPHROPATHY AND/OR DIABETES MELLITUS, COMPRISING ENAVOGLIFLOZIN” (DAEWOONG PHARMACEUTICAL CO., LTD., priority 2022, published 2026).

How the values were obtained:
[1] = Example 4: subgroup of patients with proteinuria (baseline UACR of 30 to 3500 g/kg) of Examples 1 to 3, percent change in UACR at week 24; assay type: in vivo, human; settings: for UACR decrease at week 24 compared to baseline: proteinuria subgroup
Excerpt: Among the patient groups that received the test drugs and the control drug of Examples 1 to 3, a group of patients with proteinuria (baseline UACR of 30 to 3500 g/kg) was additionally analyzed.
Among the patients in Example 1, a subgroup with baseline UACR of 30 to 3500 g/kg was classified as a group of patients with proteinuria.
Among the patients in Example 2, a subgroup with the baseline UACR of 30 to 3500 g/kg was classified as a group of patients with proteinuria.
Similarly, among the patients in Example 3, a subgroup with the baseline UACR of 30 to 3500 g/kg was classified as a group of patients with proteinuria.

[2] = Example 5: renal function-related safety, changes in eGFR in the phase 3 trials of Examples 1 to 3; assay type: in vivo, human; parameters: eGFR, change from baseline: unit not given here; settings: for eGFR: in mL/min/1.73m2 (unit assumed)
Excerpt: In phase 3 clinical trials of Examples 1 to 3, the changes in eGFR as an indicator of renal function-related safety were confirmed.

[3] = week 24, Example 2 (with metformin), per-protocol set, UACR 30-3500 g/kg at baseline
[4] = week 24, Example 3 (with metformin and gemigliptin), per-protocol set, UACR 30-3500 g/kg baseline
[5] = Week 6, Example 2 (combination therapy with metformin)
[6] = Week 6, Example 3 (combination therapy with metformin/gemigliptin)
[7] = Week 12, Example 2 (combination therapy with metformin)
[8] = Week 12, Example 3 (combination therapy with metformin/gemigliptin)
[9] = Week 18, Example 2 (combination therapy with metformin)
[10] = Week 18, Example 3 (combination therapy with metformin/gemigliptin)
[11] = Week 24, Example 2 (combination therapy with metformin)
[12] = Week 24, Example 3 (combination therapy with metformin/gemigliptin)
[13] = week 6, Example 2 (combination therapy with metformin)
[14] = week 6, Example 3 (combination therapy with metformin/gemigliptin)
[15] = week 12, Example 2 (combination therapy with metformin)
[16] = week 12, Example 3 (combination therapy with metformin/gemigliptin)
[17] = week 18, Example 2 (combination therapy with metformin)
[18] = week 18, Example 3 (combination therapy with metformin/gemigliptin)
[19] = week 24, Example 2 (combination therapy with metformin)
[20] = week 24, Example 3 (combination therapy with metformin/gemigliptin)
[21] = week 24, Example 1 (monotherapy), full analysis set, UACR 30-3500 g/kg at baseline

CCOc1ccc(Cc2cc([C@@H]3O[C@H](CO)[C@@H](O)[C@H](O)[C@H]3O)ccc2Cl)cc1 [Dapagliflozin, reference compound]
Percent change from baseline in UACR, Mean [1, 3]: −26.01% | Percent change from baseline in UACR, Median [1, 3]: −39.48% | UACR, Mean [1, 3]: 93.37 g/kg | UACR, Median [1, 3]: 45.70 g/kg | Percent change from baseline in UACR, Mean [1, 4]: −13.09% | Percent change from baseline in UACR, Median [1, 4]: −39.84% | UACR, Mean [1, 4]: 80.60 g/kg | UACR, Median [1, 4]: 43.10 g/kg | eGFR [2, 5]: 92.123 | eGFR [2, 6]: 90.5384 | eGFR [2, 7]: 92.274 | eGFR [2, 8]: 89.8198 | eGFR [2, 9]: 94.828 | eGFR [2, 10]: 90.9546 | eGFR [2, 11]: 93.739 | eGFR [2, 12]: 91.6344 | eGFR, change from baseline [2, 13]: −1.908 | eGFR, change from baseline [2, 14]: −1.1439 | eGFR, change from baseline [2, 15]: −1.559 | eGFR, change from baseline [2, 16]: −1.7177 | eGFR, change from baseline [2, 17]: 0.897 | eGFR, change from baseline [2, 18]: 0.0571 | eGFR, change from baseline [2, 19]: −0.193 | eGFR, change from baseline [2, 20]: 0.5790

OC[C@H]1O[C@@H](c2cc(Cc3ccc(C4CC4)cc3)c(Cl)c3c2CCO3)[C@H](O)[C@@H](O)[C@@H]1O [Enavogliflozin, (2S,3R,4R,5S,6R)-2-(7-chloro-6 (4-cyclopropylbenzyl)-2,3-dihydrobenzofuran-4-yl)-6-(hydroxymethyl)tetrahydro-2H-pyran-3,4,5-triol]
UACR decrease at week 24 compared to baseline ([1]; dual combination therapy with metformin): 47.35% | UACR decrease at week 24 compared to baseline ([1]; enavogliflozin administered alone): 46.06% | UACR decrease at week 24 compared to baseline ([1]; triple combination therapy with metformin and gemigliptin): 36.03% | UACR change, decrease compared to the dapagliflozin-administered patient group ([1]; two studies (Examples 2 and 3) combined): 20.72% | Percent change from baseline in UACR, Difference (enavogliflozin 0.3 mg − Placebo) [1, 21]: −50.89% | Percent change from baseline in UACR, Mean [1, 21]: −46.06% | Percent change from baseline in UACR, Median [1, 21]: −64.48% | UACR, Mean [1, 21]: 70.29 g/kg | UACR, Median [1, 21]: 26.05 g/kg | Percent change from baseline in UACR, Difference (enavogliflozin 0.3 mg − dapagliflozin 10 mg) [1, 3]: −21.33% | Percent change from baseline in UACR, Mean [1, 3]: −47.35% | Percent change from baseline in UACR, Median [1, 3]: −48.74% | UACR, Mean [1, 3]: 45.64 g/kg | UACR, Median [1, 3]: 27.65 g/kg | Percent change from baseline in UACR, Difference (enavogliflozin 0.3 mg − dapagliflozin 10 mg) [1, 4]: −22.94% | Percent change from baseline in UACR, Mean [1, 4]: −36.03% | Percent change from baseline in UACR, Median [1, 4]: −55.97% | UACR, Mean [1, 4]: 75.40 g/kg | UACR, Median [1, 4]: 46.80 g/kg | eGFR ([2]; Week 6, Example 1 (monotherapy)): 88.464 | eGFR [2, 5]: 88.574 | eGFR [2, 6]: 89.3847 | eGFR ([2]; Week 12, Example 1 (monotherapy)): 90.142 | eGFR [2, 7]: 90.566 | eGFR [2, 8]: 92.0995 | eGFR ([2]; Week 18, Example 1 (monotherapy)): 91.088 | eGFR [2, 9]: 88.185 | eGFR [2, 10]: 89.9269 | eGFR ([2]; Week 24, Example 1 (monotherapy)): 91.387 | eGFR [2, 11]: 88.056 | eGFR [2, 12]: 91.9246 | Change in eGFR (renal function-related safety) ([2]; phase 3 trials of Examples 1 to 3): no significant change in eGFR | eGFR, change from baseline ([2]; week 6, Example 1 (monotherapy)): −0.845 | eGFR, change from baseline [2, 13]: 0.425 | eGFR, change from baseline [2, 14]: 1.9291 | eGFR, change from baseline ([2]; week 12, Example 1 (monotherapy)): 1.208 | eGFR, change from baseline [2, 15]: 2.488 | eGFR, change from baseline [2, 16]: 0.9308 | eGFR, change from baseline ([2]; week 18, Example 1 (monotherapy)): 2.072 | eGFR, change from baseline [2, 17]: 0.105 | eGFR, change from baseline [2, 18]: −1.3048 | eGFR, change from baseline ([2]; week 24, Example 1 (monotherapy)): 2.371 | eGFR, change from baseline [2, 19]: −0.024 | eGFR, change from baseline [2, 20]: 0.7726
